Earlier results, collected in patent publication US10548835B2, “Methods of reducing the signs of skin aging” (Kimberly-Clark Worldwide, Inc., priority 2014, dated 2020).

Tested on: 3T3-L1 cells
Details: literature

Fucoidan
adipogenesis (adipocyte differentiation): inhibit adipogenesis
